According to patent US20080275084A1, “Piperidines for the Treatment of Chemokine Mediated Diseases” (ASTRAZENECA AB, priority 2005, published 2008):
Where a name gives a salt, the structure may show the parent alone.

Key:
human H1 receptor = molecular target: T1, human H1 receptor (Homo sapiens, UniProt P35367); assay: Histamine H1 receptor binding, competition displacement of [3H]-pyrilamine; settings: displacement of 1 nM [3H]-pyrilamine, membranes of recombinant CHO-K1 cells expressing human H1 receptor, 1 hour at room temperature; for Ki: read-out: H1 pKi (converted)
T1 construct: purchased Euroscreen SA, Brussels, Belgium ES-390-M; host or cells: CHO-K1
T1 sequence (P35367 whole entry): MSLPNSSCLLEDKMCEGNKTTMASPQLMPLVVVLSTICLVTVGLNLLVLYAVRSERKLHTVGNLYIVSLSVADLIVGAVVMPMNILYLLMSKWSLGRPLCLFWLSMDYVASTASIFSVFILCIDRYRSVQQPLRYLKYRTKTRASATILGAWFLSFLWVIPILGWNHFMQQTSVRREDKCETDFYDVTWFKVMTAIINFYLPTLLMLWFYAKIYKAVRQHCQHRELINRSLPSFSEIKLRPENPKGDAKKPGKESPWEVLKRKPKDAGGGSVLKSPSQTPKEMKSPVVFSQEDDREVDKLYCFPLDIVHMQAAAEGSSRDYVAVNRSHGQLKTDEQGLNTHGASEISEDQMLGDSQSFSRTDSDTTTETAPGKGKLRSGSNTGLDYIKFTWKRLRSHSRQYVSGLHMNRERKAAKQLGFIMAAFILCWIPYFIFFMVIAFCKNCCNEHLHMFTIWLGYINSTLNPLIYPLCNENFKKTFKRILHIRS
Description: Histamine H1 receptor binding activity of compounds of the invention was assessed by competition displacement of 1 nM [3H]-pyrilamine (Amersham, Bucks, Product code TRK 608, specific activity 30 Ci/mmol) to 2 μg membranes prepared from recombinant CHO-K1 cells expressing the human H1 receptor (Euroscreen SA, Brussels, Belgium, product code ES-390-M) in assay buffer (50 mM Tris pH 7.4 containing 2 mM MgCl2, 250 mM sucrose and 100 mM NaCl) for 1 hour at room temperature.
The following compounds of the invention gave inhibition of [3H]pyrilamine binding: […]

recombinant human CCR3 = molecular target: T2, recombinant human CCR3 (Homo sapiens, UniProt P51677); assay: Compound affinity at human recombinant CCR3 receptors, radioligand competition on CHO-K1 cell membranes; assay type: binding; settings: competition with 2 nM [3H]-4-(2,4-dichloro-3-methylphenoxy)-1'-[4-(methylsulfonyl)benzoyl]-1,4'-bipiperidine, 2 h at 37° C., mean pKi by Cheng-Prussof correction of pIC50, minimum 2 experiments
T2 construct: expressed in transfected cells; host or cells: CHO-K1
T2 sequence (P51677 1-355): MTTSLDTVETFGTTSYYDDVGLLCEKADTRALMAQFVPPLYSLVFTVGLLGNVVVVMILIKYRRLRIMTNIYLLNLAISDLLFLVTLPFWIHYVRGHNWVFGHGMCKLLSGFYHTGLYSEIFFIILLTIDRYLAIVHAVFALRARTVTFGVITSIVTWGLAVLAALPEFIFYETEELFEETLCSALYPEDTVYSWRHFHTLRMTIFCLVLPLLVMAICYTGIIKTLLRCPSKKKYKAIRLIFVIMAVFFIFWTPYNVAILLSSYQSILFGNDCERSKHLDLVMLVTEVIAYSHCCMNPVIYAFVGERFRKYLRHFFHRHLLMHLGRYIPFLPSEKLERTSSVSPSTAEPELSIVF
Description: Determination of Compound Affinity at Human Recombinant CCR3 Receptors Assessed by Competition of [^3H]-4-(2,4-dichloro-3-methylphenoxy)-1′-[4-(methylsulfonyl)benzoyl]-1,4′-bipiperidine for CHO-K1 Cell Membranes In Vitro
Membranes, prepared from CHO-K1 cells stably expressing recombinant human CCR3, suspended in assay buffer (50 mM Tris-Base, pH 7.4; containing sodium chloride (100 mM) and magnesium chloride (2 mM)) were incubated in the presence of 2 nM [^3H]-4-(2,4-dichloro-3-methylphenoxy)-1′-[4-(methylsulfonyl)benzoyl]-1,4′-bipiperidine, along with vehicle (1% (v/v) DMSO), 4-(4-chloro-3-methylphenoxy)-1′-[2-(methylsulfonyl)benzoyl]-1,4′-bipiperidine (to define non-specific binding) or test compound for 2 h at 37° C. in round bottomed 96-well plates. The plates were then filtered onto GF/B filter plates, pre-soaked for 1 hour in plate-coating solution (0.3% (w/v) polyethylenimine, 0.2% (w/v) BSA in de-ionised water), using a 96-well plate Tomtec cell harvester. Four washes (250 μL) with wash buffer (50 mM Tris-Base, pH 7.4 containing sodium chloride (500 mM) and magnesium chloride (2 mM)) were performed at 4° C. to remove unbound radioactivity. […] The plates were sealed (TopSeal A) and filter-bound radioactivity was measured with a scintillation counter (TopCount, Packard BioScience) using a 1 minute counting protocol. […]

Compound	Ki (human H1 receptor) [nM]	also measured
Cc1c(OC2CCN(CC3CCN([C@@H](CC4CCCCC4)C(=O)O)CC3)CC2)ccc(Cl)c1Cl [Example 2A, (2S)-3-Cyclohexyl-2-(4-{[4-(3,4-dichloro-2-methylphenoxy)piperidin-1-yl]methyl}piperidin-1-yl)propanoic acid]	79.4	
Cc1c(OC2CCN(CC3CCN([C@@H](CC4CC4)C(=O)O)CC3)CC2)ccc(Cl)c1Cl [Example 3A, (2S)-3-Cyclopropyl-2-(4-{[4-(3,4-dichloro-2-methylphenoxy)piperidin-1-yl]methyl}piperidin-1-yl)propanoic acid]	200	
O=C(O)[C@H](CC1CCCC1)N1CCC(CN2CCC(Oc3ccc(Cl)c(Cl)c3)CC2)CC1 [Example 4A, (2S)-3-Cyclopentyl-2-(4-{[4-(3,4-dichlorophenoxy)piperidin-1-yl]methyl}piperidin-1-yl)propanoic acid]	126	
Cc1cc(Cl)ccc1OC1CCN(CC2CCN([C@@](C)(CC(C)C)C(=O)O)CC2)CC1 [Example 16A, (2S)-2-{4-[4-(4-Chloro-2-methyl-phenoxy)-piperidin-1-ylmethyl]-piperidin-1-yl}-2,4-dimethyl-pentanoic acid]		Ki (recombinant human CCR3): 0.631 nM
(2S)-3-cyclohexyl-2-(4-{[4-(3,4-dichloro-2-methylphenoxy)piperidin-1-yl]methyl}piperidin-1-yl)propanoic acid [Example 1A]		H1 pKi (human H1 receptor): 7.2

Now from value to compound, other results behind:

Ki (human H1 receptor) [nM]	Compound	also measured
501	O=C(O)C1(N2CCC(CN3CCC(Oc4ccc(Cl)c(Cl)c4)CC3)CC2)CCCCC1 [Example 6A, 1-(4-{[4-(3,4-dichlorophenoxy)piperidin-1-yl]methyl}piperidin-1-yl)cyclohexanecarboxylic acid]	
316	Cc1c(OC2CCN(CC3CCN(C4(C(=O)O)CCCC4)CC3)CC2)ccc(Cl)c1Cl [Example 8A, 1-(4-{[4-(3,4-dichloro-2-methylphenoxy)piperidin-1-yl]methyl}piperidin-1-yl)cyclopentanecarboxylic acid]	
631	Cc1cc(Cl)ccc1OC1CCN(CC2CCN(C3(C(=O)O)CCCCC3)CC2)CC1 [Example 13A, 1-(4-{[4-(4-Chloro-2-methylphenoxy)piperidin-1-yl]methyl}piperidin-1-yl)cyclohexanecarboxylic acid dihydrochloride]	
